Assay results as given in patent US20040248971A1, “Use of vitamin e succinate and antiandrogen combination” (priority 2001, published 2004).
Entries after “also recorded” stand apart in the source; their conditions may differ.

Tests used:
LNCaP cells [1] = assay: MTT assay / cell counting, LNCaP cell growth; type: cell-based, human; details: for DHT-mediated LNCaP cell growth: 8% CS-FBS with 5 nM DHT
Procedure: Cells were harvested at the time indicated. […] Cells were harvested at the time indicated. […] Cell growth was determined by the MTT assay. The control group was cultured in 0.1% (vol/vol) ethanol and was set at 100%.
All the cell growth was determined by cell counting and MTT assay. Control group contained 0.1% (v/v) ethanol and was set at 100%.
LNCaP cells were cultured in RPMI medium with 8% FBS, and treated with 10^−5M of the indicated reagent Cells were harvested at the time indicated in the figure. All the cell growth was determined by cell counting and MTT assay. Control group contained 0.1% (v/v) ethanol and was set at 100%.
The human prostate cancer cell line LNCaP was obtained from the American Type Culture collection (Rockville, Md.). Fibroblast cell was primarily cultured from normal prostate tissue. LNCaP cells were propagated in 12-well, 60 mm or 100 mm culture dishes at the desired density in RPMI 1640 medium (Gibco, Rockville, Md.) supplemented with 8% fetal bovine serum (FBS) (Gibco, Rockville, Md.) at 37° C. and 5% CO2 until reaching 60%-80% confluence or were grown in phenol red-free RPMI medium 1640 with 8% fetal bovine serum (FBS). The fibroblast cells were maintained in DMEM (Gibco, Rockville, Md.) with 10% FBS. […] During the treatment, the medium was changed every 4 days and fresh compounds were added every 2 days.
The MTT assay is a quantitative colorimetric assay for mammalian cell survival and proliferation (13, 16). The 5×10^4 LNCaP cells were seeded in 12-well plates. After 36-48 h, the medium was changed to phenol red free RPMI1640 with 8 % FBS or CS-FBS for another 2, 4, and 6 days, with different compound treatment with or without ligand. At the end of each time period treatment, 200 μl of MTT (5 mg/ml; Sigma) was added into the each well with 1 ml of medium for 3 h at 37° C. After incubation, 2 ml of 0.04 M HCl in isopropyl alcohol was added into each well. After 30-min shaking at room temperature and several pippettings, the absorbency was read at a test wavelength of 595 nm. The 2×10^5 fibroblast cells were seeded in each well of 6-well dishes. […] For cell counting, cells were trypsinized, neutralized by medium, and counted on hemocytometers. Fibroblast cells were seeded at 2×10^5 per well in 6-well plates, and cell growth assays were conducted by using the same MTT assay used for LNCaP cells.

PSA6.0-Luc = assay: PSA promoter luciferase reporter (PSA6.0-Luc) in LNCaP cells; type: cell-based, human; details: 5 nM DHT, 10 μM VES or Suc
Procedure: (§1) Cells without treatment were harvested on day 2 and used as a control. Western blotting was used to detect the expression of PSA protein. Actin served as an internal control. […] Cells were harvested on days 1, 2, and 3 for Northern blotting analysis. β-Actin served as an internal control. […] The transfections were performed at least three times and presented as an average±SD. […] LNCaP cells without any treatment harvested on the first day (day 0) is used as a control. Western blotting was applied to detect the expression of PSA protein level. […] Cells were harvested on day 1, 2, and 3 for Northern blotting analyses. (G). […] The transfections were performed three times and presented as an average: bar-denotes standard deviation.

PSA = PSA expression in LNCaP cells (Western and Northern blotting); type: cell-based, human; details: for PSA expression at mRNA and protein levels: 5 nM DHT, 10 μM VES, Western and Northern blotting; for PSA expression: Western blotting (FIG. 9)
Procedure: as §1
Protein harvested from cells without treatment on the first day (day 0) was used as a control. Fifty micrograms of whole-cell lysate was subjected to Western blotting assay.
LNCaP cells were cultured in RPMI medium with 8% FBS, and treated with […] of the indicated reagent. Proteins harvested from cells without treatment on day 2 were used as a control. 60 micrograms of whole cell lysate was subjected to Western blotting assay.
(§2) Total protein lysate from LNCaP cells was prepared as previously described (Yeh, PNAS). After separation of 50 μg protein by SDS-PAGE gel, proteins were transferred by electrophoresis to Immobilon-P membrane (Millipore Corp., Bedford, Mass.) and incubated in PBS with 0.1% Tween-20 and 10% FCS for 2 h. Primary antibodies specific for human AR, PSA, and β-actin were diluted in PBS with 0.1% Tween-20 (PBST) as described in manual and incubated at room temperature for 2 h. Membranes were washed in PBST (three times, 10 min each time) and incubated with AP-conjugated secondary antibody which was diluted as described in manual in PBST and incubated for 2 h in room temperature, washed in PBST (three times, 10 min each time). The proteins were detected by AP western blotting reagents.
Cells were harvest after 1, 2, and 3 days treatment. Total RNA was extracted using Trizol, according to manufacturer's directions (GIBCO). Total RNA (20 μg) was electrophoresed though formaldehyde-agarose gels and transferred to Hybond-N+ membrane (Amersham Pharmacia Biotech) according the company's protocol (17).
For Northern blots, the fragments of the human PSA, AR, and β-actin cDNA were labeled with [^32P]-dCTP using the random primed DNA labeling kit from Amersham Pharmacia Biotech. Membranes were prehybridized, hybridized, and washed using Rapid-hyb system from Amersham Pharmacia Biotech, according to the manufacturer's user manual. The mRNA was detected using phosphorimager screen system (Molecular Dynamics).

AR [2] = assay: In vivo AR radioligand competition binding assay in LNCaP cells; parameters: species or system human
Procedure: [^3H]R1881-binding without competition was set at 100%. […] (B) AR N-C dimerization.
LNCaP cells were plated into 60-mm dishes and grown to 60% confluence. […] After 1-h incubation, cells were harvested by lysis buffer (PBS with 1% Triton X-100). Equal protein amounts of cell extract were subjected to binding assays, which were terminated by adding hydroxylapatite. Each sample was filtered by using a sampling manifold (Millipore) and unbound ligand was removed by washing. Filter papers that contained bound ligand were transferred to counting vials containing 5 ml of liquid scintillation fluid and counted with a multipurpose scintillation counter (Beckman).

AR [3] = assay: AR expression in LNCaP cells (Western and Northern blotting); type: cell-based, human; details: for AR expression at the protein level: Western blotting, Suc or SM, 10 nM Vit D; for AR expression: Western blotting (FIG. 9)
Procedure: Cells were harvested at different time points. Twenty-five micrograms of RNA and 50 μg of protein collected from the same culture dish were applied for Northern blotting and Western blotting assays, respectively (45). The amount of actin is shown as a control. […] LNCaP cells without treatment were harvested on day 2 and used as a control. Whole-cell lysates were subjected to Western blotting assay using primary antibodies for AR, VDR, PPAR, or RXR. […] Protein harvested from cells without treatment on the first day (day 0) was used as a control. Fifty micrograms of whole-cell lysate was subjected to Western blotting assay. […] LNCaP cells were cultured in RPMI medium with 8% FBS, and treated with […] of the indicated reagent. Proteins harvested from cells without treatment on day 2 were used as a control. 60 micrograms of whole cell lysate was subjected to Western blotting assay. Total protein lysate from LNCaP cells was prepared as previously described (Yeh, PNAS). […] Membranes were washed in PBST (three times, 10 min each time) and incubated with AP-conjugated secondary antibody which was diluted as described in manual in PBST and incubated for 2 h in room temperature, washed in PBST (three times, 10 min each time). The proteins were detected by AP western blotting reagents. […] Cells were harvest after 1, 2, and 3 days treatment. Total RNA was extracted using Trizol, according to manufacturer's directions (GIBCO). Total RNA (20 μg) was electrophoresed though formaldehyde-agarose gels and transferred to Hybond-N+ membrane (Amersham Pharmacia Biotech) according the company's protocol (17). For Northern blots, the fragments of the human PSA, AR, and β-actin cDNA were labeled with [^32P]-dCTP using the random primed DNA labeling kit from Amersham Pharmacia Biotech. Membranes were prehybridized, hybridized, and washed using Rapid-hyb system from Amersham Pharmacia Biotech, according to the manufacturer's user manual. The mRNA was detected using phosphorimager screen system (Molecular Dynamics).

[4] = system: primary cultured fibroblasts from normal prostate tissue; assay: MTT assay, primary cultured prostate fibroblast growth; type: cell-based; details: 10 μM VES, 10% FBS DMEM
RXRα = assay: RXR expression in LNCaP cells (Western blotting); type: cell-based, human; details: 10 μM VES
Procedure: (§3) Cells were harvested at different time points. Twenty-five micrograms of RNA and 50 μg of protein collected from the same culture dish were applied for Northern blotting and Western blotting assays, respectively (45). The amount of actin is shown as a control. […] LNCaP cells without treatment were harvested on day 2 and used as a control. Whole-cell lysates were subjected to Western blotting assay using primary antibodies for AR, VDR, PPAR, or RXR.
as §2

LNCaP cells [5] = assay: MTT assay / cell counting, LNCaP cell growth; type: cell-based, human; details: 10 μM VES, 4 days, phase-contrast
AR [6] = assay: AR translocation / immunostaining; type: cell-based
Source text: Whether VES could influence translocation of AR was examined.

SP1 = assay: GAL4-SP1 transactivation (pG5-Luc) in COS-1 cells; type: cell-based; details: 10 μM VES
PPARα = assay: PPAR expression in LNCaP cells (Western blotting); type: cell-based, human
Procedure: as §3, §2

human TAP (hTAP) = human TAP (hTAP) (Homo sapiens, UniProt O76054); details: recombinant hTAP; read-out: Kd of binding to recombinant hTAP; cited from earlier work
Sequence of human TAP (hTAP) (O76054 whole entry): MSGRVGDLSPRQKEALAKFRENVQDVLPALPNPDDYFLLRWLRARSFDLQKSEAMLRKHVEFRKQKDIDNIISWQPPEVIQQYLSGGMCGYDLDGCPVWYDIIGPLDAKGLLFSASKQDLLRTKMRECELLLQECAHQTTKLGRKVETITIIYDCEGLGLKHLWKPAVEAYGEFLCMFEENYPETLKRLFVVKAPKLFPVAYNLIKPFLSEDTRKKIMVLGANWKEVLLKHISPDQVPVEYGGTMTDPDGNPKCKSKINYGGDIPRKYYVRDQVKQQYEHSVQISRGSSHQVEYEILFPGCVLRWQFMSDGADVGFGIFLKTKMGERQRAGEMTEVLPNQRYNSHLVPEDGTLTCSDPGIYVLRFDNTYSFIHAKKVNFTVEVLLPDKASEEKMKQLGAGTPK

[7] = 8% FBS without DHT, HF 5 μM, VES 10 μM, MTT
[8] = RPMI 8% FBS, 10^−5M reagent, cell counting and MTT (FIGS. 8 and 10)

Structure (SMILES): C[C@]12CCC(=O)C[C@@H]1CC[C@@H]1[C@@H]2CC[C@]2(C)[C@@H](O)CC[C@@H]12 [DHT, 5-dihydrotestosterone]
- LNCaP cell growth (LNCaP cells [1]; 8% CS-FBS, DHT 5 nM, MTT): can stimulate
- DHT induced PSA6.0-Luc activity (PSA6.0-Luc): induced
- PSA expression at mRNA and protein levels (PSA; LNCaP): induced

Structure (SMILES): CC(C)(O)C(=O)Nc1ccc([N+](=O)[O-])c(C(F)(F)F)c1 [HF, hydroxyflutamide]
- DHT-mediated LNCaP cell growth (LNCaP cells [1]; HF 5 μM, VES 10 μM, MTT): fails to repress
- LNCaP cell growth (LNCaP cells [1]; [7]): induces LNCaP cell growth at day 2, with the induction gradually diminishing after day 4

Structure (SMILES): C[C@]1(O)CC[C@H]2[C@@H]3CCC4=CC(=O)CCC4=C3C=C[C@@]21C [R1881, reference compound]
- specific binding of [3H]R1881 competed (AR [2]; 2.5 nM [3H]R1881, 100-fold excess unlabeled R1881 (250 nM)): 95%

Structure (SMILES): C[Se]CC[C@H](N)C(=O)O [SM, selenomethionine]
- LNCaP cell growth (LNCaP cells [1]; 10 μM SM, after 4 days treatment): growth inhibition
- AR expression at the protein level (AR [3]; 10 μM VES): no effect
- PSA expression (protein) (PSA; LNCaP, 8% FBS, 10 μM SM, Western blot): no effect

Structure (SMILES): O=C(O)CCC(=O)O [Suc, succinic acid]
- DHT induced PSA6.0-Luc activity (PSA6.0-Luc): not
- AR expression at the protein level (AR [3]; 10 μM VES): not

Structure (SMILES): CC(=O)Oc1c(C)c(C)c2c(c1C)CCC(C)(CCC[C@H](C)CCC[C@H](C)CCCC(C)C)O2 (stereo partly drawn) [VEA, α-Vit E acetate]
- AR expression (AR [3]; 8% FBS): do not efficiently inhibit
- PSA expression (PSA; LNCaP, 8% FBS): do not efficiently inhibit

Structure (SMILES): Cc1c(C)c2c(c(C)c1OC(=O)CCC(=O)O)CCC(C)(CCCC(C)CCCC(C)CCCC(C)C)O2 (stereo not drawn) [VES, RRR-α-tocopheryl succinate]
- prostate fibroblast cell growth [4]: only a marginal inhibitory effect and not
- RXRα expression (RXRα): little effect
- DHT-mediated LNCaP cell growth (LNCaP cells [1]; HF 5 μM, VES 10 μM, MTT): effectively represses
- LNCaP cell growth (LNCaP cells [1]; [7]): inhibits; also recorded: differentially inhibit
- LNCaP cell growth (LNCaP cells [1]; [8]): can inhibit; also recorded: most effective compound; also recorded: most effective isoform
- DHT induced PSA6.0-Luc activity (PSA6.0-Luc): repressed
- AR mRNA and protein expression (AR [3]; 8% FBS, 10 μM VES, Northern and Western blotting): inhibits
- AR expression (AR [3]; 8% FBS): most effective isoform
- AR expression at the protein level (AR [3]; 10 μM VES): could suppress
- influence on AR ligand binding (AR [2]; 10 μM VES pretreatment 24 h, 2.5 nM [3H]R1881): little influence
- morphologic change of LNCaP cells (LNCaP cells [5]): most of the cells dying
- AR distribution between cytosol and nucleus (AR [6]): little influence
- total AR-staining intensity (AR [6]): reduced
- GAL4-SP1 transcription activity (SP1): did not significantly inhibit
- PPARr expression (PPARα; 10 uM VES): little effect
- PPARα expression (PPARα; 10 μM VES): little effect
- intracellular and secreted levels of PSA (PSA; LNCaP cells in normal serum or androgen-stimulated conditions): decreases
- PSA expression (PSA; LNCaP, 8% FBS): most effective isoform
- PSA expression at mRNA and protein levels (PSA; LNCaP): effectively repressed

Structure (SMILES): C=C1/C(=C\C=C2/CCC[C@]3(C)[C@@H]([C@H](C)CCCC(C)(C)O)CC[C@@H]23)C[C@@H](O)C[C@@H]1O [Vit D, 1α, 25-dihydroxyvitamin D3]
- LNCaP cell growth (LNCaP cells [1]; [8]): can inhibit
- AR expression at the protein level (AR [3]; 10 μM VES): not

Structure (SMILES): Cc1c(C)c2c(c(C)c1O)CCC(C)(CCCC(C)CCCC(C)CCCC(C)C)O2 (centres unmarked) [vitamin E]
- Kd (human TAP (hTAP)): 460 nM

Structure (SMILES): Cc1c(C)c2c(c(C)c1O)CC[C@@](C)(CCC[C@H](C)CCC[C@H](C)CCCC(C)C)O2 [α-Vit E, alpha—tocopherol]
- LNCaP cell growth (LNCaP cells [1]; [8]): can inhibit
- AR expression (AR [3]; 8% FBS): can also inhibit
- PSA expression (PSA; LNCaP, 8% FBS): can also inhibit

Structure (SMILES): Cc1c(O)cc2c(c1C)O[C@](C)(CCC[C@H](C)CCC[C@H](C)CCCC(C)C)CC2 [γ-Vit E, (+)-γ-tocopherol]
- LNCaP cell growth (LNCaP cells [1]; [8]): can inhibit
- AR expression (AR [3]; 8% FBS): do not efficiently inhibit
- PSA expression (PSA; LNCaP, 8% FBS): do not efficiently inhibit
